“And” between values parts separate entries of the source, which are not always exact repeats. Equal entries are not always repeated.
Key:
human keratinocytes = assay: mRNA-Sequencing, human keratinocytes; assay type: cell-based
Description: Human chronic myelogenous leukemia K562 cells (ATCC No. CCL-243) were obtained from the American Type Culture Collection (Manassas, Va., USA) and maintained in complete-[…] Park Memorial Institute (RPMI) 1640 medium supplemented with 20 mmol/L HEPES (pH 7.4; GIBCO-Invitrogen, Carlsbad, Calif., USA), 10% (v/v) fetal bovine serum (FBS), 2 mmol/L L-glutamine (GIBCO-Invitrogen), and 80 units gentamicin (GIBCO-Invitrogen). Cells were cultured in suspension in a humidified atmosphere of 5% (v/v) CO2 at 37° C. and were maintained in exponential growth phase. For maintenance, cells were passaged twice per week and seeded at ratios 1:10. Human neonatal foreskin keratinocytes transfected with the human papilloma virus (HPV) were grown as monolayers in keratinocyte—Serum Free Medium (SFM) medium (GIBCO-Invitrogen) supplemented with L-glutamine, human epidermal growth factor (EGF), and bovine pituitary extract (BPE) at 37° C., 5% (v/v) CO2. Cells were passaged by trypsinisation and seeded at ratio of 1:3. Cells were seeded at densities of 1×10^6/mL in culture flasks (Nalge Nunc, New York, USA) and treated with hydroxytyrosol (0, 20, 100 μM), for 24 hours at 37° C., 5% (v/v) CO2. mRNA sequencing was performed by TRIZOL extraction and library preparation using Illumina kits according to manufacturer's protocols. Next generation sequencing (NGS) was performed at a depth of approximately 20 million mapped reads per sample to determine the effect of hydroxytyrosol on genome-wide gene expression, in human erythroleukemic K562 cells and human keratinocytes (24 hr treatment, 20 and 100 μM). Reads generated by the Illumina base calling software V1.6 were aligned with Burrows Wheeler Aligner to the human transcriptome database curated by RefSeq (Hg18 build). Raw counts were normalized to adjust for slightly differing data volume across lanes giving the widely used score reads per transcript per million reads. These scores were used to determine relative fold changes and the conventionally used ±1.5 fold-change, which is discernible with qRT-PCR, was defined a significant change in expression. The online program MetaCore (GeneGo Inc. St. Joseph, MI, USA) was used for pathway analysis.

K562 cells = assay: Cell viability (Cell-Titer Blue), K562; assay type: cell-based, human
Description: Cells were seeded at densities of 7,500 cells/in black flat bottom 96-well plates (Nalge Nunc, Penfield, N.Y., USA) and treated with a dose response of hydroxytyrosol (0-200 μM), oleuropein (0-800 μM), tyrosol (0-1000 μM) and homovanilic acid (0-1000 μM) for 24 hours at 37° C., 5% (v/v) CO2. Cell viability was determined after 24 hour exposure to hydroxytyrosol and measured using the Cell-Titer Blue® Assay kit (Promega, Madison, Wis., USA) according to the manufacturer's instructions. Cell-Titer Blue reagent was added to each well and incubated for 4 hours at 37° C., 5% CO2, before reading fluorescence intensity (550 nm excitation; 615 nm emission) using the Perkin Elmer Victor3 (Perkin Elmer, MA, USA) multi-label plate reader. Alternatively Cells were seeded at densities of 7,500 cells/in black flat bottom 96-well plates (Nalge Nunc, Penfield, N.Y., USA) and treated with 100 μM hydroxytyrosol for 24 hours at 37° C., 5% (v/v) CO2. […] Fluorescence intensity (λex=550 nm and λem=615 nm) was determined using a Perkin Elmer Victor3 multilabel microplate counter (PerkinElmer, Waltham, Mass., USA). Data were expressed as % relative cell viability compared to untreated cells after correction of subtracting the media control fluorescence reading.

[1] = hydroxytyrosol 24 hr (20 μM per FIG. 18C)

## OCCc1ccc(O)c(O)c1 [HT, 4-(2-hydroxyethyl)-1,2-benzenediol]
Human keratinocytes; hydroxytyrosol
  heme oxygenase 1 (HMOX-1) up-regulated: 15 fold
  number of genes whose expression is regulated: ~3 thousand genes
Human keratinocytes; [1]
  ELP3 expression Fold Change (UP): 1.51 fold
  HDAC5 expression Fold Change (UP): 1.81 fold and 1.70 fold
  HDAC9 expression Fold Change (UP): 3.00 fold
  HDAC11 expression Fold Change (UP): 1.65 fold and 1.54 fold
  JHDM1D expression Fold Change (UP): 1.66 fold
  KDM2B expression Fold Change (UP): 1.64 fold and 1.55 fold
  KDM3A expression Fold Change (UP): 1.60 fold
  KDM5D expression Fold Change (DOWN): 2.00 fold
  MLL3 expression Fold Change (DOWN): 2.00 fold
  NCOA1 expression Fold Change (UP): 1.51 fold
  PRDM1 expression Fold Change (UP): 2.67 fold and 4.00 fold
  PRDM4 expression Fold Change (UP): 1.56 fold
  PRDM8 expression Fold Change (UP): 1.85 fold and 1.64 fold
  PRDM11 expression Fold Change (UP): 3.00 fold
  PRDM12 expression Fold Change (DOWN): 1.50 fold
  PRMT8 expression Fold Change (DOWN): 2.00 fold
  SETBP1 expression Fold Change (DOWN): 2.00 fold
  SETDB2 expression Fold Change (UP): 1.75 fold
  SETMAR expression Fold Change (UP): 1.53 fold
  SMYD3 expression Fold Change (DOWN): 1.55 fold
K562 cells; 20 or 100 μM, 24 hours
  cell viability of K562 cells: significantly reduced in a dose dependent manner
K562 cells; K562, hydroxytyrosol pre-treatment 24 hours, then doxorubicin
  effect on the cytotoxicity of doxorubicin: enhances the cytotoxicity of doxorubicin
